Values of other authors in US20190346442A1, “IMPROVED HLA EPITOPE PREDICTION” (The Broad Institute, Inc., priority 2016, published 2019).

Key:
[1] = system: advanced hormone refractory prostate cancer patients; details: personalized vaccination combined with a low dose of estramustine
[2] = system: ovarian carcinoma patients; details: poly-ICLC in combination with NY-ESO-1 peptide vaccine, in addition to Montanide; phase 1
healthy human volunteers = details: 8 volunteers, one single s.c. administration, versus 4 subjects receiving placebo; whole blood

| Molecule | patients with >50% decrease in serum prostate specific antigen (PSA) [1] [%] | patients showing induction of CD4+ and CD8+ T cell, as well as antibody responses to the peptide [2] [%] | differential expression of genes versus placebo (healthy human volunteers) |
| --- | --- | --- | --- |
| C[C@]12CC[C@@H]3c4ccc(OC(=O)N(CCCl)CCCl)cc4CC[C@H]3[C@@H]1CC[C@@H]2O [estramustine] | 54 |  |  |
| Polyinosinic-Polycytidylic Acid-poly-L-lysine Carboxymethylcellulose [poly-ICLC] |  | > 90 | up to 212 genes |
